Assay results taken from patent US20250093329A1, “SCREENING OF COMPOUNDS” (THE UNIVERSITY OF TULSA, priority 2022, published 2025).
“Also recorded” adds a separate entry of the source.

Tests used:
BxPC3 = experiment: ATP levels by CellTiter-Glo, compound alone or with metabolic inhibitor (Table 1); type: cell-based; conditions: compound 100 uM + 2DG (about 10-20 mM), DMEM + 10% FBS, two hour incubation, DMSO control
Source text: The improved method for identifying such compounds measures ATP levels as a function of light emitted by any ATP dependent luciferase or modified luciferases, i.e. luciferase derivatives. The method uses a conventional luminescent assay to determine the number of viable cells in a culture. The improvement provided by the present method results from pre-treating cells used in the assays with a metabolic inhibitor prior to treatment with the compound of interest, or switching the cells to a media formulated to force use of a specific metabolic pathway. Luminescent assays for determining cytotoxicity are well known in the art. […]
Following treatment of the control and test cells with the metabolic inhibitor (or switching to a new media), the method calls for addition of the compound to be screened for anti-cancer properties to the cells. […] Following completion of the selected time period, the ATP level within the cell is determined. ATP levels can be determined by luminescence according to standard measuring procedures, i.e. the luminescence level of the assay from the living cells treated with the two component composition is compared to the luminescence level of the assay from the living cells without the two component composition, i.e., the control experiment. […]

H293 = experiment: Cytotoxicity testing, CellTiter-Blue assay, 24 hour (FIG. 3); type: cell-based; conditions: 100 μM, 24 hour compound incubation
Protocol: The cytotoxicity tests were carried out in the following manner. Living cells are known to convert resazurin to the fluorescent compound resorufin. Test systems which rely upon this reaction are commercially available. One such test is known at the Cell Titer Blue Cell Viability test assay from Promega. Cell cultures for each of the identified cancer lines were obtained from ATCC and maintained in Dulbecco's Modified Eagle Medium (DMEM) supplemented with 10% fetal bovine serum (FBS) and pen/strep. As known to those skilled in the art, DMEM typically includes the components identified below.
The test method provides for incubating the cell cultures at temperatures which correspond to the range of body temperatures experienced by the patient from which the cancer cells were obtained. Typically, incubation temperatures will be between the temperatures of 36.1° C. and 37.2° C. In most cases incubation will occur at 37° C. Additionally, the cell cultures are kept under an atmosphere which mimics cell conditions of the tumor within the patient's body. In most cases, the tumor microenvironment (TME) is characterized by hypoxia (low oxygen) and may also be characterized by hypercapnia (increased CO2). Hypercapnia results from decreased blood flow which limits CO2 elimination. Restricted CO2 elimination leads to increased HCO3^− conversion to CO2 in order to neutralize lactate as altered tumor cell metabolism produces more CO2 than normal. Normal tissue averages about 5% oxygen with oxygen ranges from about 3% to 7.4%. […] In the case of CO2, normocapnic is around 5% CO2, while hypercapnic can rise to 10% CO2. Therefore, to mimic the environment of the tumor the method utilizes an incubator designed to provide the optimal gaseous environment corresponding to that of the tumor. Thus, the incubator will be capable of maintaining an atmosphere having an oxygen content in the range of […] and a CO2 in the range of 1% to 10%.
After allowing for proliferation of the cells, the cells were distributed across a plurality of test wells containing from 100 μL DMEM plus 10% FBS and allowed to attach to the surface of the test wells. Typically, the time for attachment will require about 12 hours to about 18 hours. […] Following treatment of the cells with the N-benzyl sulfonamide or control, the toxicity of the compound to the cells will be determined by addition of a luminescing agent. […] Subsequently, the fluorescence of resazurin is measured by excitation at 560 nm and recording the emission at 590 nm within an instrument configured to measure fluorescence intensity. Two commercially available systems are the BioTek Cytation 5 plate reader and the Promega Glomax Multi+detection system. […]

How did the “percent of control (POC), ATP luminescence” value (BxPC3) turn out when O=S(=O)(NCc1c[nH]c2ccccc12)c1ccc(Cl)cc1 [Compound 2, N-[(1H-indol-3-yl)methyl]-4-chlorobenzenesulfonamide] was run?
The value was “remarkable value; also recorded: effectiveness”.

What about the “effectiveness, percent reduction in cell viability (FIG. 3)” value (H293) of the same molecule?
Its value is “effective”.
